SMILES strings stand for the structures. pIC50: −log10 of the molar value.

This experiment addresses T1, human Npt2a (Homo sapiens, UniProt Q06495).
T1 construct: expressed in transfected cells
T1 sequence (Q06495 1-639): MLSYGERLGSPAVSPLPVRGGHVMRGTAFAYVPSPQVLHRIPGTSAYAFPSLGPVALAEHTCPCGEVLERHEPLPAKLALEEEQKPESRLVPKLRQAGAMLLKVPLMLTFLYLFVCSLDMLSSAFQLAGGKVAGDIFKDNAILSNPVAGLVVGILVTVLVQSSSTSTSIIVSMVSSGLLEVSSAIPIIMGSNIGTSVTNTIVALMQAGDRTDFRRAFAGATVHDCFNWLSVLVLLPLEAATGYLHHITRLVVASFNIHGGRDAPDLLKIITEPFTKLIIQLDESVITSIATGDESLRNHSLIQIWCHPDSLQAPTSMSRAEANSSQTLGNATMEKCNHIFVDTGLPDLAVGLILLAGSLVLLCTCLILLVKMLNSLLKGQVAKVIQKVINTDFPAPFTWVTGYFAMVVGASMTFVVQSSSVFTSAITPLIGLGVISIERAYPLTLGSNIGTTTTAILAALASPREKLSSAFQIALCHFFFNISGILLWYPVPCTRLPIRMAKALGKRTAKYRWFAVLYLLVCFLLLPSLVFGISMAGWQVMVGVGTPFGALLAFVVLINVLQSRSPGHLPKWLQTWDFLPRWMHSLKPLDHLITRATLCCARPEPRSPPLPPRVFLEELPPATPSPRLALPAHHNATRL
The experiment can be described thus: Npt2a activity cell based assay, membrane potential dye, CHO T-REx hNpt2a cells. The conditions noted are these: doxycycline-induced, depolarization by sodium phosphate influx, average or median values if tested more than once. Summed up: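 Doxycycline-induced (0.5 μg/mL, 24 h) CHO T-REx cells were loaded with membrane potential dye in sodium-free NHE buffer (pH 7.4) and exposed to compound (50 μM–1 nM, 5 min, room temperature).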
As to `Cc1nn(-c2cc(Nc3c(C)c(-c4ccc(C(F)F)cc4)nn3CC3CC3)ncn2)c(C)c1C(C)(C)O` [Example 396, 2-{1-[6-({1-(cyclopropylmethyl)-3-[4-(difluoromethyl)phenyl]-4-methyl-11H-pyrazol-5-yl}amino)pyrimidin-4-yl]-3,5-dimethyl-1H-pyrazol-4-yl}propan-2-ol], the pIC50 was 7.80.
The same measure for `Cc1nn(-c2ccc(F)cc2)c(C)c1Nc1cc(-n2nc(C)c3ccccc32)ncn1` [Example 102, N-[1-(4-fluorophenyl)-3,5-dimethyl-1H-pyrazol-4-yl]-6-(3-methyl-1H-indazol-1-yl)pyrimidin-4-amine]: 8.14; for `Cc1cc(C)n(-c2cc(Nc3c(Cl)c(-c4ccccc4)nn3C)ncn2)n1` [Example 457, N-(4-chloro-1-methyl-3-phenyl-1H-pyrazol-5-yl)-6-(3,5-dimethyl-1H-pyrazol-1-yl)pyrimidin-4-amine]: 6.89.
The same measure for `Cc1nn(-c2cc(Nc3c(C)c(-c4ccc(OC(F)(F)F)cc4)nn3C)ncn2)c(C)c1C(C)(C)O` [Example 377, 2-{1-[6-({1,4-dimethyl-3-[4-(trifluoromethoxy)phenyl]-1H-pyrazol-5-yl}amino)pyrimidin-4-yl]-3,5-dimethyl-1H-pyrazol-4-yl}propan-2-ol]: 6.69.
The same measure for `Cc1nn(-c2cc(Nc3c(C)c(-c4ccc(F)cc4)nn3CC3CC3)ncn2)c(C)c1OC(F)F` [Example 509, N-[1-(cyclopropylmethyl)-3-(4-fluorophenyl)-4-methyl-1H-pyrazol-5-yl]-6-[4-(difluoromethoxy)-3,5-dimethyl-1H-pyrazol-1-yl]pyrimidin-4-amine]: 8.00; for `COC(C)c1c(C)nn(-c2cc(Nc3c(C)c(-c4ccc(C#N)cc4)nn3C)ncn2)c1C` (single isomer, unassigned) [Example 340, 4-{5-[(6-{4-[1-methoxyethyl]-3,5-dimethyl-1H-pyrazol-1-yl}pyrimidin-4-yl)amino]-1,4-dimethyl-1H-pyrazol-3-yl}benzonitrile]: 7.92.
With `CCc1c(Nc2cc(-n3nc(C)cc3C)ncn2)n[nH]c1-c1ccc(Cl)cc1` [Example 21, N-[5-(4-chlorophenyl)-4-ethyl-1H-pyrazol-3-yl]-6-(3,5-dimethyl-1H-pyrazol-1-yl)pyrimidin-4-amine], the negative-log IC50 (pIC50) is 6.85.
Next, `CCc1c(Nc2cc(-n3nc(C)c(C(=O)N4CCCCC4)c3C)ncn2)nn(C)c1-c1ccc(F)cc1` [Example 105, [1-(6-{[4-ethyl-5-(4-fluorophenyl)-1-methyl-1H-pyrazol-3-yl]amino}pyrimidin-4-yl)-3,5-dimethyl-1H-pyrazol-4-yl](piperidin-1-yl)methanone]: 6.63.
Next, `Cc1nn(-c2cc(Nc3c(C)c(-c4ccc(C#N)cc4)nn3CC3CC3)ncn2)c(C(F)F)c1Cl` [Example 154, 4-[5-({6-[4-chloro-5-(difluoromethyl)-3-methyl-1H-pyrazol-1-yl]pyrimidin-4-yl}amino)-1-(cyclopropylmethyl)-4-methyl-1H-pyrazol-3-yl]benzonitrile]: 8.52.
Next, `COCCc1c(Nc2cc(-n3nc(C)cc3C)ncn2)n[nH]c1-c1ccc(F)cc1` [Example 38, 6-(3,5-dimethyl-1H-pyrazol-1-yl)-N-[5-(4-fluorophenyl)-4-(2-methoxyethyl)-1H-pyrazol-3-yl]pyrimidin-4-amine]: 5.63; `CNC(=O)Oc1c(C)nn(-c2cc(Nc3c(C)c(-c4ccc(F)cc4)nn3CC3CC3)ncn2)c1C` [Example 519, 1-(6-{[1-(cyclopropylmethyl)-3-(4-fluorophenyl)-4-methyl-1H-pyrazol-5-yl]amino}pyrimidin-4-yl)-3,5-dimethyl-1H-pyrazol-4-yl methylcarbamate]: 6.64; `COc1ccc(-c2nn(CC3CC3)c(Nc3cc(-n4nc(C)cc4C)ncn3)c2C)cc1` [Example 491, N-[1-(cyclopropylmethyl)-3-(4-methoxyphenyl)-4-methyl-1H-pyrazol-5-yl]-6-(3,5-dimethyl-1H-pyrazol-1-yl)pyrimidin-4-amine]: 6.66.
In turn, `CCOC(=O)c1c(C)nn(-c2cc(Nc3c(OC)c(-c4ccc(C#N)cc4)nn3CC3CC3)ncn2)c1C` [Example 320, ethyl 1-(6-{[3-(4-cyanophenyl)-1-(cyclopropylmethyl)-4-methoxy-1H-pyrazol-5-yl]amino}pyrimidin-4-yl)-3,5-dimethyl-1H-pyrazole-4-carboxylate] gave a pIC50 of 7.15.
Next, `CCc1c(Nc2cc(-n3nc(C)c(Cl)c3C)ncn2)nn(CC(F)F)c1-c1ccc(F)cc1` [Example 174, 6-(4-chloro-3,5-dimethyl-1H-pyrazol-1-yl)-N-[1-(2,2-difluoroethyl)-4-ethyl-5-(4-fluorophenyl)-1H-pyrazol-3-yl]pyrimidin-4-amine]: 7.48; `Cc1cc(C)n(-c2cc(Nc3nn(C)c(-c4ccc(F)cc4)c3Cl)ncn2)n1` [Example 91, N-[4-chloro-5-(4-fluorophenyl)-1-methyl-1H-pyrazol-3-yl]-6-(3,5-dimethyl-1H-pyrazol-1-yl)pyrimidin-4-amine]: 8.24; `COc1c(Nc2cc(-n3nc(C)c(C(F)(F)F)c3C)ncn2)nn(C)c1-c1ccc(C#N)cc1` [Example 541, 4-[3-({6-[3,5-dimethyl-4-(trifluoromethyl)-1H-pyrazol-1-yl]pyrimidin-4-yl}amino)-4-methoxy-1-methyl-1H-pyrazol-5-yl]benzonitrile]: 6.59.
The same measure for `CCc1c(Nc2cc(-n3nc(C)c(C)c3O)ncn2)nn(C)c1-c1ccc(F)cc1` [Example 25, 1-(6-{[4-ethyl-5-(4-fluorophenyl)-1-methyl-1H-pyrazol-3-yl]amino}pyrimidin-4-yl)-3,4-dimethyl-1H-pyrazol-5-ol]: 5.97; for `COc1c(-c2ccc(F)cc2)nn(CC2CC2)c1Nc1cc(-n2nc(C)c(C(C)=O)c2C)ncn1` [Example 317, 1-[1-(6-{[1-(cyclopropylmethyl)-3-(4-fluorophenyl)-4-methoxy-1H-pyrazol-5-yl]amino}pyrimidin-4-yl)-3,5-dimethyl-1H-pyrazol-4-yl]ethanone]: 6.35.
On to `COc1c(Nc2cc(-n3nc(C)c(OC)c3C)ncn2)nn(C)c1-c1ccc(C#N)cc1` [Example 493, 4-(4-methoxy-3-{[6-(4-methoxy-3,5-dimethyl-1H-pyrazol-1-yl)pyrimidin-4-yl]amino}-1-methyl-1H-pyrazol-5-yl)benzonitrile], for which the negative-log IC50 (pIC50) was 6.20.
The same measure for `Cc1cc(C)n(-c2cc(Nc3[nH]nc(-c4ccc(F)cc4)c3CC(F)(F)F)ncn2)n1` [Example 36, 6-(3,5-dimethyl-1H-pyrazol-1-yl)-N-[3-(4-fluorophenyl)-4-(2,2,2-trifluoroethyl)-1H-pyrazol-5-yl]pyrimidin-4-amine]: 5.77.
Next, `Cc1nn(-c2cc(Nc3c(C)c(-c4ccc(F)cc4F)nn3C)ncn2)c(C)c1C(C)(C)O` [Example 378, 2-[1-(6-{[3-(2,4-difluorophenyl)-1,4-dimethyl-1H-pyrazol-5-yl]amino}pyrimidin-4-yl)-3,5-dimethyl-1H-pyrazol-4-yl]propan-2-ol]: 5.59.
The same measure for `Cc1c(-c2ccc(C#N)cc2)nn(CC2CC2)c1Nc1cc(-n2nc(C(C)C)cc2C)ncn1` [Example 286, 4-[1-(cyclopropylmethyl)-4-methyl-5-({6-[5-methyl-3-(propan-2-yl)-1H-pyrazol-1-yl]pyrimidin-4-yl}amino)-1H-pyrazol-3-yl]benzonitrile]: 7.03.
Molecule `Cc1cc(C(F)F)n(-c2cc(Nc3nn(C)c(-c4ccc(C#N)cc4)c3C)ncn2)n1` [Example 236, 4-[3-({6-[5-(difluoromethyl)-3-methyl-1H-pyrazol-1-yl]pyrimidin-4-yl}amino)-1,4-dimethyl-1H-pyrazol-5-yl]benzonitrile] gave a pIC50 of 8.52.
The same measure for `COc1c(C)nn(-c2cc(Nc3c(C)c(-c4ccc(F)cc4)nn3C)ncn2)c1C` [Example 437, N-[3-(4-fluorophenyl)-1,4-dimethyl-1H-pyrazol-5-yl]-6-(4-methoxy-3,5-dimethyl-1H-pyrazol-1-yl)pyrimidin-4-amine]: 7.68; for `CCc1c(Nc2cc(-n3nc(C)c(Cl)c3C)ncn2)n[nH]c1-c1ccc(F)cc1` [Example 5, 6-(4-chloro-3,5-dimethyl-1H-pyrazol-1-yl)-N-[4-ethyl-5-(4-fluorophenyl)-1H-pyrazol-3-yl]pyrimidin-4-amine]: 7.56.
Next, `COCCn1nc(-c2ccc(C(F)F)cc2)c(C)c1Nc1cc(-n2nc(C)c(C(=O)N(C)C)c2C)ncn1` [Example 558, 1-[6-({3-[4-(difluoromethyl)phenyl]-1-(2-methoxyethyl)-4-methyl-1H-pyrazol-5-yl}amino)pyrimidin-4-yl]-N,N,3,5-tetramethyl-1H-pyrazole-4-carboxamide]: 7.10.
The molecule `Cc1cc(C)n(-c2cc(Nc3c(C)c(-c4ccc(C(F)(F)F)nc4)nn3CC3CC3)ncn2)n1` [Example 533, N-{1-(cyclopropylmethyl)-4-methyl-3-[6-(trifluoromethyl)pyridin-3-yl]-1H-pyrazol-5-yl}-6-(3,5-dimethyl-1H-pyrazol-1-yl)pyrimidin-4-amine] showed a pIC50 of 5.70.

(Values after patent US11208400B2, “Substituted 6-(1H-pyrazol-1-yl)pyrimidin-4-amine derivatives and uses thereof” (Bayer Aktiengesellschaft, priority 2016, dated 2021).)
